In brackets after ≈: the same amount, converted by molar mass.
Tests used:
Type in all cases: functional
Rhizopus = assay: Antimicrobial activity against Rhizopus after 72 to 96 hr by two-fold serial dilution method
Staphylococcus aureus = assay: Antimicrobial activity against Staphylococcus aureus after 24 hr by two-fold serial dilution method
Shigella flexneri = assay: Antimicrobial activity against Shigella flexneri after 24 hr by two-fold serial dilution method
Salmonella typhi = assay: Antimicrobial activity against Salmonella enterica subsp. enterica serovar Typhi after 24 hr by two-fold serial dilution method
Nannizzia gypsea = assay: Antimicrobial activity against Microsporum gypseum after 72 to 96 hr by two-fold serial dilution method
Aspergillus flavus = assay: Antimicrobial activity against Aspergillus flavus after 72 to 96 hr by two-fold serial dilution method
Escherichia coli = assay: Antimicrobial activity against Escherichia coli after 24 hr by two-fold serial dilution method
Mucor = assay: Antimicrobial activity against Mucor after 72 to 96 hr by two-fold serial dilution method
Vibrio cholerae = assay: Antimicrobial activity against Vibrio cholerae after 24 hr by two-fold serial dilution method
Klebsiella pneumoniae = assay: Antimicrobial activity against Klebsiella pneumoniae after 24 hr by two-fold serial dilution method
Streptococcus = assay: Antimicrobial activity against beta-hemolytic Streptococcus after 24 hr by two-fold serial dilution method

Molecule S=C1NNC2(N1)C1CCCC2C(c2ccc(Cl)cc2)NC1c1ccc(Cl)cc1 (stereo not drawn) has an MIC (Rhizopus) of 25 µg/mL (≈ 57.7 µM), an MIC (Staphylococcus aureus) of 12.5 µg/mL (≈ 28.8 µM) and an MIC (Shigella flexneri) of 100 µg/mL (≈ 231 µM). For the same molecule, the MIC (Salmonella typhi) was 12.5 µg/mL (≈ 28.8 µM), the MIC (Nannizzia gypsea) was 12.5 µg/mL (≈ 28.8 µM) and the MIC (Aspergillus flavus) was 12.5 µg/mL (≈ 28.8 µM). For the same molecule, the MIC (Escherichia coli) was 12.5 µg/mL (≈ 28.8 µM), the MIC (Mucor) was 12.5 µg/mL (≈ 28.8 µM) and the MIC (Vibrio cholerae) was 25 µg/mL (≈ 57.7 µM). The MIC (Klebsiella pneumoniae) was 100 µg/mL (≈ 231 µM) and the MIC (Streptococcus) was 50 µg/mL (≈ 115 µM).
Molecule S=C1NNC2(N1)C1CCCC2C(c2ccc(Br)cc2)NC1c1ccc(Br)cc1 (stereo not drawn) has an MIC (Rhizopus) of 12.5 µg/mL (≈ 23.9 µM), an MIC (Staphylococcus aureus) of 12.5 µg/mL (≈ 23.9 µM) and an MIC (Shigella flexneri) of 50 µg/mL (≈ 95.7 µM). It also gave an MIC (Salmonella typhi) of 12.5 µg/mL (≈ 23.9 µM), an MIC (Nannizzia gypsea) of 25 µg/mL (≈ 47.9 µM) and an MIC (Aspergillus flavus) of 6.25 µg/mL (≈ 12 µM). For the same molecule, the MIC (Escherichia coli) was 100 µg/mL (≈ 191 µM), the MIC (Mucor) was 12.5 µg/mL (≈ 23.9 µM) and the MIC (Vibrio cholerae) was 25 µg/mL (≈ 47.9 µM). The MIC (Klebsiella pneumoniae) was 100 µg/mL (≈ 191 µM) and the MIC (Streptococcus) was 6.25 µg/mL (≈ 12 µM).
For O=[N+]([O-])c1ccc(C2NC(c3ccc([N+](=O)[O-])cc3)C3CCCC2C32NNC(=S)N2)cc1 (stereo not drawn), the MIC (Rhizopus) was 12.5 µg/mL (≈ 27.5 µM), the MIC (Staphylococcus aureus) was 12.5 µg/mL (≈ 27.5 µM) and the MIC (Shigella flexneri) was 50 µg/mL (≈ 110 µM). It also gave an MIC (Salmonella typhi) of 100 µg/mL (≈ 220 µM), an MIC (Nannizzia gypsea) of 12.5 µg/mL (≈ 27.5 µM) and an MIC (Aspergillus flavus) of 25 µg/mL (≈ 55 µM). For the same molecule, the MIC (Escherichia coli) was 100 µg/mL (≈ 220 µM), the MIC (Mucor) was 25 µg/mL (≈ 55 µM) and the MIC (Vibrio cholerae) was 25 µg/mL (≈ 55 µM). It also gave an MIC (Klebsiella pneumoniae) of 50 µg/mL (≈ 110 µM) and an MIC (Streptococcus) of 12.5 µg/mL (≈ 27.5 µM).
With Fc1ccc(C2NC(c3ccc(F)cc3)C3CCCC2C32NNC(=S)N2)cc1 (stereo not drawn) the MIC (Rhizopus) was 12.5 µg/mL (≈ 31.2 µM), the MIC (Staphylococcus aureus) was 6.25 µg/mL (≈ 15.6 µM) and the MIC (Shigella flexneri) was 50 µg/mL (≈ 125 µM). It also gave an MIC (Salmonella typhi) of 100 µg/mL (≈ 250 µM), an MIC (Nannizzia gypsea) of 6.25 µg/mL (≈ 15.6 µM) and an MIC (Aspergillus flavus) of 6.25 µg/mL (≈ 15.6 µM). It also gave an MIC (Escherichia coli) of 100 µg/mL (≈ 250 µM), an MIC (Mucor) of 100 µg/mL (≈ 250 µM) and an MIC (Vibrio cholerae) of 12.5 µg/mL (≈ 31.2 µM). For the same molecule, the MIC (Klebsiella pneumoniae) was 6.25 µg/mL (≈ 15.6 µM) and the MIC (Streptococcus) was 12.5 µg/mL (≈ 31.2 µM).
With O=C(O)c1cn(C2CC2)c2cc(N3CCNCC3)c(F)cc2c1=O [CIPROFLOXACIN] the MIC (Staphylococcus aureus) was 12.5 µg/mL (≈ 37.7 µM), the MIC (Shigella flexneri) was 25 µg/mL (≈ 75.4 µM) and the MIC (Salmonella typhi) was 25 µg/mL (≈ 75.4 µM). For the same molecule, the MIC (Escherichia coli) was 25 µg/mL (≈ 75.4 µM), the MIC (Vibrio cholerae) was 25 µg/mL (≈ 75.4 µM) and the MIC (Klebsiella pneumoniae) was 12.5 µg/mL (≈ 37.7 µM). For the same molecule, the MIC (Streptococcus) was 12.5 µg/mL (≈ 37.7 µM).
For Cc1ccc(C2NC(c3ccc(C)cc3)C3CCCC2C32NNC(=S)N2)cc1 (stereo not drawn), the MIC (Rhizopus) was 50 µg/mL (≈ 127 µM), the MIC (Staphylococcus aureus) was 50 µg/mL (≈ 127 µM) and the MIC (Shigella flexneri) was 200 µg/mL (≈ 509 µM). For the same molecule, the MIC (Salmonella typhi) was 50 µg/mL (≈ 127 µM), the MIC (Nannizzia gypsea) was 50 µg/mL (≈ 127 µM) and the MIC (Aspergillus flavus) was 200 µg/mL (≈ 509 µM). For the same molecule, the MIC (Escherichia coli) was 200 µg/mL (≈ 509 µM), the MIC (Mucor) was 100 µg/mL (≈ 255 µM) and the MIC (Vibrio cholerae) was 50 µg/mL (≈ 127 µM). The MIC (Klebsiella pneumoniae) was 200 µg/mL (≈ 509 µM) and the MIC (Streptococcus) was 50 µg/mL (≈ 127 µM).
OC(Cn1cncn1)(Cn1cncn1)c1ccc(F)cc1F [FLUCONAZOLE] was tested, and the MIC (Rhizopus) was 25 µg/mL (≈ 81.6 µM), the MIC (Nannizzia gypsea) was 12.5 µg/mL (≈ 40.8 µM) and the MIC (Aspergillus flavus) was 25 µg/mL (≈ 81.6 µM). It also gave an MIC (Mucor) of 12.5 µg/mL (≈ 40.8 µM).
Molecule S=C1NNC2(N1)C1CCCC2C(c2ccccc2)NC1c1ccccc1 (stereo not drawn) has an MIC (Rhizopus) of 200 µg/mL (≈ 549 µM), an MIC (Staphylococcus aureus) of 100 µg/mL (≈ 274 µM) and an MIC (Shigella flexneri) of 100 µg/mL (≈ 274 µM). For the same molecule, the MIC (Salmonella typhi) was 50 µg/mL (≈ 137 µM), the MIC (Nannizzia gypsea) was 200 µg/mL (≈ 549 µM) and the MIC (Aspergillus flavus) was 100 µg/mL (≈ 274 µM). For the same molecule, the MIC (Escherichia coli) was 200 µg/mL (≈ 549 µM), the MIC (Mucor) was 200 µg/mL (≈ 549 µM) and the MIC (Vibrio cholerae) was 50 µg/mL (≈ 137 µM). It also gave an MIC (Klebsiella pneumoniae) of 100 µg/mL (≈ 274 µM) and an MIC (Streptococcus) of 100 µg/mL (≈ 274 µM).
In the case of COc1ccc(C2NC(c3ccc(OC)cc3)C3CCCC2C32NNC(=S)N2)cc1 (stereo not drawn), the MIC (Rhizopus) is reported as 25 µg/mL (≈ 58.9 µM), the MIC (Staphylococcus aureus) is reported as 100 µg/mL (≈ 236 µM) and the MIC (Shigella flexneri) is reported as 25 µg/mL (≈ 58.9 µM). It also gave an MIC (Salmonella typhi) of 200 µg/mL (≈ 471 µM), an MIC (Nannizzia gypsea) of 50 µg/mL (≈ 118 µM) and an MIC (Aspergillus flavus) of 100 µg/mL (≈ 236 µM). The MIC (Escherichia coli) was 100 µg/mL (≈ 236 µM), the MIC (Mucor) was 50 µg/mL (≈ 118 µM) and the MIC (Vibrio cholerae) was 50 µg/mL (≈ 118 µM). The MIC (Klebsiella pneumoniae) was 12.5 µg/mL (≈ 29.4 µM) and the MIC (Streptococcus) was 100 µg/mL (≈ 236 µM).

From ChEMBL document CHEMBL3044935, “Synthesis and in vitro microbiological evaluation of novel 2,4-diaryl-3-azabicyclo[3.3.1]nonan-9,5-spiro-1,2,4-triazolidine-3-thiones” (2012)
